Laboratory results: paper PMC10575282, “Elettaria cardamomum (L.) Maton Essential Oil: An Interesting Source of Bioactive Specialized Metabolites as Inhibitors of Acetylcholinesterase and Butyrylcholinesterase” (Plants, 2023)

Experiments:
[1] = biological target: T1, butyrylcholinesterase (BChE) from equine serum (Equus caballus, UniProt P81908); test: biochemical; type: biochemical; conditions: for BChE Inhibition (%): fractions/compounds at the concentrations in which they are present in EO, average of three assays
T1 construct: butyrylcholinesterase (BChE) from equine serum; purchased Merck Life Science S.r.l; (Milan, Italy); host or cells: equine serum
T1 sequence (P81908 whole entry): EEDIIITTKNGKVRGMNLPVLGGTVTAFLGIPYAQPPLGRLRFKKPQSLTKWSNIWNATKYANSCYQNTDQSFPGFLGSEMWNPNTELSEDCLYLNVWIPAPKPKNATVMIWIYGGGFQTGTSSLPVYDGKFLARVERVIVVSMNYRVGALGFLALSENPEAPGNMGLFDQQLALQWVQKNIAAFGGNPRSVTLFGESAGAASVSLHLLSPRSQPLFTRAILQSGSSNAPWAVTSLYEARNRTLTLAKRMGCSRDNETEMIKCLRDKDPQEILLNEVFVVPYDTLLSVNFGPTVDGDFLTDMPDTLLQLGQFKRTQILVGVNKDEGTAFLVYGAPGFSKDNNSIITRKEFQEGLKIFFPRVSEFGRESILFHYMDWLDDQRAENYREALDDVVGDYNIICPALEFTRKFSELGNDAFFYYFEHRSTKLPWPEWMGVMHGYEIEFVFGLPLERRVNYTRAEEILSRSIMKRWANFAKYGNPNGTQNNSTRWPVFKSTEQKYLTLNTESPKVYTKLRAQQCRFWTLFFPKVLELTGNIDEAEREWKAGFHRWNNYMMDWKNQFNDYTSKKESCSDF
Procedure: (§1) The protocol used in this study was that of Rhee et al., with slight modifications. The following buffers were used: buffer A (50 mM Tris-HCl pH 8), buffer B (50 mM Tris-HCl pH 8, with the addition of 0.1% of bovine albumin and 0.1% of TWEEN20), and buffer C (50 mM Tris-HCl pH 8, with the addition of 0.1 M of NaCl and 0.02 M of MgCl2 6H2O). The enzyme solution of 0.22 U/mL was prepared in buffer B. The acetylthiocholine iodide (ATCI) solution of 1.5 mM was prepared in Millipore water, while the butyrylthiocholine iodide (BTCI) solution was prepared in buffer A. Ellman’s reagent solution at 3 mM was prepared in buffer C.
(§2) The reaction mixture was incubated at 30 °C for 6 min. The absorbance values were measured at 405 nm after incubation. […] The control and sample blank solutions were prepared by replacing 150 µL of the enzyme solution with 150 µL of buffer A.
(§3) The percentage of the AChE or BChE inhibition was measured according to the equation below:% Inhibition = ΔA (Control) − ΔA (Sample)/ΔA (Control) × 100 ΔA (Control) = A412 (Control) − A412 (Control Blank) ΔA(Sample) = A412 (Sample) − A412 (Sample Blank)
(§4) The concentration–response curve was determined for each inhibitor by plotting the inhibitory activity against AChE or BChE as a function of the inhibitor concentration in the reaction mixture.
(§5) The Microsoft Excel programme was used for the Anova test. For the IC50 calculation, an online programme from AAT Bioquest was used (https://www.aatbio.com/tools/ic50-calculator, accessed on 10 May 2023).

[2] = biological target: T2, acetylcholinesterase (AChE) from Electrophorus electricus (Electrophorus electricus, UniProt O42275); test: biochemical; type: biochemical; conditions: for AChE Inhibition (%): fractions/compounds at the concentrations in which they are present in EO, average of three assays; for IC50 AChE: ± standard deviation, n = 3
T2 construct: purchased Merck Life Science S.r.l; (Milan, Italy)
T2 sequence (O42275 24-633): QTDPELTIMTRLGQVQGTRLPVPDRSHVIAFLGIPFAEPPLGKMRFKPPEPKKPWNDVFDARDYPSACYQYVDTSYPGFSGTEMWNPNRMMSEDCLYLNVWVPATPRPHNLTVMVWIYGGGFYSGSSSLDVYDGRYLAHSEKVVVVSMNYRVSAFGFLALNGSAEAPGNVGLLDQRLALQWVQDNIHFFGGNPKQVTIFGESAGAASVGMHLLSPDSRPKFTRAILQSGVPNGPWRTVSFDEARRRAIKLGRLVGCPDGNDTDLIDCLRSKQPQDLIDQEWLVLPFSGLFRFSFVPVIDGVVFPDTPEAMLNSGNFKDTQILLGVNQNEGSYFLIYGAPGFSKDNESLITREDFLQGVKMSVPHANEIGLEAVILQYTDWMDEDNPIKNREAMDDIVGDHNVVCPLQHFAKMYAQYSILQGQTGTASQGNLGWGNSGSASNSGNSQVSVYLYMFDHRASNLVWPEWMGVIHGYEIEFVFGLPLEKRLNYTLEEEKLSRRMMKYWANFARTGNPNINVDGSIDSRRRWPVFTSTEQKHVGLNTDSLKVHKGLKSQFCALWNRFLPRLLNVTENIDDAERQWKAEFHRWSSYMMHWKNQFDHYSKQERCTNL
Procedure: as §1, §2, §3, §4, §5

AChE = conditions: cited from earlier work
BChE = test system: BChE; set-up: method as in doi:10.1016/j.jff.2020.103892; conditions: cited from earlier work

C=CC(C)(O)CCC=C(C)C (stereo not shown) [Linalool, linalool]
BChE Inhibition (%) [1]: 5.0% | BChE Inhibition (%) ([1]; listed as linalool): active

CC12CCC(CC1)C(C)(C)O2 [1,8-cineole]
IC50 [2]: 91.4 µM | AChE Inhibition (%) [2]: 55.4% | IC50 BChE ([1]; ± standard deviation, n = 3): inactive inhibitor of BChE | IC50 BChE ([1]; ± standard deviation, n = 3, listed as 1,8-Cineole): not active | AChE inhibition (AChE; mechanism still unclear): known to actively inhibit AChE

C=CC(C)(CCC=C(C)C)OC(C)=O (stereo not shown) [Linalyl acetate, linalyl acetate]
BChE Inhibition (%) [1]: 10.3% | BChE Inhibition (%) ([1]; listed as linalyl acetate): active

CC(=O)OC(C)(C)C1CC=C(C)CC1 (stereo not drawn) [α-terpinyl acetate]
AChE Inhibition (%) [2]: 17.0% | IC50 AChE [2]: 50% inhibition was never achieved | IC50 AChE ([2]; listed as α-Terpinyl acetate): Activity lower than 50% | BChE Inhibition (%) [1]: 39.0% | IC50 ([1]; ± standard deviation, n = 3): 112 µM | Type of inhibition of AChE (AChE): competitive inhibition | Type of inhibition of BChE (BChE): mixed inhibition
